Patent publication US20110028566A1, “COMPOSITIONS AND PRODUCTS CONTAINING CYCLOALIPHATIC DIOL ANTIMICROBIAL AGENTS AND METHODS OF USING THE COMPOSITIONS AND PRODUCTS” (EASTMAN CHEMICAL COMPANY, priority 2009, published 2011)

Key:
Assay in all cases: Microbial challenge testing in BPW
Type in all cases: cell-based
Staphylococcus aureus = conditions: BPW, w/v % in label, average of replicates; for Grade code, S. aureus, 3 Day: 3 days incubation; for Grade code, S. aureus, 14 Day: 14 days incubation; for Grade code, S. aureus, 30 Day: 30 days incubation
How it was run: (§1)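 Bacteria, including ATCC and wild-type isolates from chemical products, were grown in tryptose soy broth with 1% dextrose for at least 96 hours. Inoculum was sized by plate count and turbidity (NTU) and added to test-material substrates to give 10^5 to 10^6 cfu/mL initially. Incubation ran 14 days at 35° C., then at room temperature.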

Bacillus subtilis = conditions: BPW, w/v % in label, average of replicates; for Grade code, B. subtilis, 3 Day: 3 days incubation; for Grade code, B. subtilis, 14 Day: 14 days incubation; for Grade code, B. subtilis, 30 Days: 30 days incubation
How it was run: as §1

[1] = system: Staphylococcus epidermidis; conditions: BPW, w/v % in label, average of replicates; for Grade code, S. epidermidis, 3 Days: 3 days incubation; for Grade code, S. epidermidis, 13 Days: 13 days incubation; for Grade code, S. epidermidis, 30 Days: 30 days incubation
How it was run: as §1

Escherichia coli = conditions: BPW, w/v % in label, average of replicates; for Grade code, E. coli, 3 Day: 3 days incubation; for Grade code, E. coli, 14 Day: 14 days incubation; for Grade code, E. coli, 30 Day: 30 days incubation
How it was run: as §1

Aeromonas sp. = conditions: BPW, w/v % in label, average of replicates; for Grade code, Aeromonas sp, 3 Days: 3 days incubation; for Grade code, Aeromonas sp, 14 Days: 14 days incubation; for Grade code, Aeromonas sp, 30 Days: 30 days incubation
How it was run: as §1

Pseudomonas aeruginosa = conditions: BPW, w/v % in label, average of replicates; for Grade code, P. aeruginosa, 3 Days: 3 days incubation; for Grade code, P. aeruginosa, 13 Days: 13 days incubation; for Grade code, P. aeruginosa, 30 Days: 30 days incubation
How it was run: as §1

Streptococcus mutans = conditions: BPW, w/v % in label, average of replicates; for Grade code, S. mutans, 3 Day: 3 days incubation; for Grade code, S. mutans, 13 Day: 13 days incubation; for Grade code, S. mutans, 30 Days: 30 days incubation
How it was run: as §1

Proteus vulgaris = conditions: BPW, w/v % in label, average of replicates; for Grade code, P. vulgaris, 3 Days: 3 days incubation; for Grade code, P. vulgaris, 13 Days: 13 days incubation; for Grade code, P. vulgaris, 30 Day: 30 days incubation
How it was run: as §1

With `CCCCCCC(O)CO` (stereo not shown) [CG, 1,2-octanediol] the “Grade code, S. aureus, 3 Day” value (Staphylococcus aureus; listed as 0.25% CG) was 4 (1001 to 10,000 colonies (thus 10,000 cfu/mL to 100,000 cfu/mL)), the “Grade code, S. aureus, 3 Day” value (Staphylococcus aureus; listed as 0.5% CG) was 3 (101 to 1000 colonies (thus 1000 to 10,000 cfu/mL)) and the “Grade code, S. aureus, 14 Day” value (Staphylococcus aureus; listed as 0.25% CG) was 2 (52 to 100 colonies counted (thus 520 to 1000 cfu/mL)). The “Grade code, S. aureus, 14 Day” value (Staphylococcus aureus; listed as 0.5% CG) was 0 (No growth detected or <1 colony (thus <10 cfu/mL)), the “Grade code, S. aureus, 30 Day” value (Staphylococcus aureus; listed as 0.25% CG) was 2 (52 to 100 colonies counted (thus 520 to 1000 cfu/mL)) and the “Grade code, S. aureus, 30 Day” value (Staphylococcus aureus; listed as 0.5% CG) was 0 (No growth detected or <1 colony (thus <10 cfu/mL)). The “Grade code, B. subtilis, 3 Day” value (Bacillus subtilis; listed as 0.25% CG) was 4 (1001 to 10,000 colonies (thus 10,000 cfu/mL to 100,000 cfu/mL)), the “Grade code, B. subtilis, 3 Day” value (Bacillus subtilis; listed as 0.5% CG) was 3 (101 to 1000 colonies (thus 1000 to 10,000 cfu/mL)) and the “Grade code, B. subtilis, 14 Day” value (Bacillus subtilis; listed as 0.25% CG) was 4 (1001 to 10,000 colonies (thus 10,000 cfu/mL to 100,000 cfu/mL)). The “Grade code, B. subtilis, 14 Day” value (Bacillus subtilis; listed as 0.5% CG) was 1 (1 to 51 colonies counted (thus 10 to 510 cfu/mL)), the “Grade code, B. subtilis, 30 Days” value (Bacillus subtilis; listed as 0.25% CG) was 4 (1001 to 10,000 colonies (thus 10,000 cfu/mL to 100,000 cfu/mL)) and the “Grade code, B. subtilis, 30 Days” value (Bacillus subtilis; listed as 0.5% CG) was 1 (1 to 51 colonies counted (thus 10 to 510 cfu/mL)). The “Grade code, S. epidermidis, 3 Days” value ([1]; listed as 0.25% CG) was 4 (1001 to 10,000 colonies (thus 10,000 cfu/mL to 100,000 cfu/mL)), the “Grade code, S. epidermidis, 3 Days” value ([1]; listed as 0.5% CG) was 2 (52 to 100 colonies counted (thus 520 to 1000 cfu/mL)) and the “Grade code, S. epidermidis, 13 Days” value ([1]; listed as 0.25% CG) was 1 (1 to 51 colonies counted (thus 10 to 510 cfu/mL)). For the same compound, the “Grade code, S. epidermidis, 13 Days” value ([1]; listed as 0.5% CG) was 0 (No growth detected or <1 colony (thus <10 cfu/mL)), the “Grade code, S. epidermidis, 30 Days” value ([1]; listed as 0.25% CG) was 1 (1 to 51 colonies counted (thus 10 to 510 cfu/mL)) and the “Grade code, S. epidermidis, 30 Days” value ([1]; listed as 0.5% CG) was 0 (No growth detected or <1 colony (thus <10 cfu/mL)). For the same compound, the “Grade code, E. coli, 3 Day” value (Escherichia coli; listed as 0.25% CG) was 3 (101 to 1000 colonies (thus 1000 to 10,000 cfu/mL)), the “Grade code, E. coli, 3 Day” value (Escherichia coli; listed as 0.5% CG) was 1 (1 to 51 colonies counted (thus 10 to 510 cfu/mL)) and the “Grade code, E. coli, 14 Day” value (Escherichia coli; listed as 0.25% CG) was 2 (52 to 100 colonies counted (thus 520 to 1000 cfu/mL)). The “Grade code, E. coli, 14 Day” value (Escherichia coli; listed as 0.5% CG) was 0 (No growth detected or <1 colony (thus <10 cfu/mL)), the “Grade code, E. coli, 30 Day” value (Escherichia coli; listed as 0.25% CG) was 2 (52 to 100 colonies counted (thus 520 to 1000 cfu/mL)) and the “Grade code, E. coli, 30 Day” value (Escherichia coli; listed as 0.5% CG) was 0 (No growth detected or <1 colony (thus <10 cfu/mL)). The “Grade code, Aeromonas sp, 3 Days” value (Aeromonas sp.) was 4 (1001 to 10,000 colonies (thus 10,000 cfu/mL to 100,000 cfu/mL)), the “Grade code, Aeromonas sp, 14 Days” value (Aeromonas sp.) was 4 (1001 to 10,000 colonies (thus 10,000 cfu/mL to 100,000 cfu/mL)) and the “Grade code, Aeromonas sp, 30 Days” value (Aeromonas sp.) was 4 (1001 to 10,000 colonies (thus 10,000 cfu/mL to 100,000 cfu/mL)). For the same compound, the “Grade code, P. aeruginosa, 3 Days” value (Pseudomonas aeruginosa; listed as 0.25% CG) was 2 (52 to 100 colonies counted (thus 520 to 1000 cfu/mL)), the “Grade code, P. aeruginosa, 3 Days” value (Pseudomonas aeruginosa; listed as 0.5% CG) was 0 (No growth detected or <1 colony (thus <10 cfu/mL)) and the “Grade code, P. aeruginosa, 13 Days” value (Pseudomonas aeruginosa; listed as 0.25% CG) was 2 (52 to 100 colonies counted (thus 520 to 1000 cfu/mL)). The “Grade code, P. aeruginosa, 13 Days” value (Pseudomonas aeruginosa; listed as 0.5% CG) was 0 (No growth detected or <1 colony (thus <10 cfu/mL)), the “Grade code, P. aeruginosa, 30 Days” value (Pseudomonas aeruginosa; listed as 0.25% CG) was 2 (52 to 100 colonies counted (thus 520 to 1000 cfu/mL)) and the “Grade code, P. aeruginosa, 30 Days” value (Pseudomonas aeruginosa; listed as 0.5% CG) was 0 (No growth detected or <1 colony (thus <10 cfu/mL)). For the same compound, the “Grade code, S. mutans, 3 Day” value (Streptococcus mutans) was 0 (No growth detected or <1 colony (thus <10 cfu/mL)), the “Grade code, S. mutans, 13 Day” value (Streptococcus mutans) was 0 (No growth detected or <1 colony (thus <10 cfu/mL)) and the “Grade code, S. mutans, 30 Days” value (Streptococcus mutans) was 0 (No growth detected or <1 colony (thus <10 cfu/mL)). For the same compound, the “Grade code, P. vulgaris, 3 Days” value (Proteus vulgaris; listed as 0.25% CG) was 4 (1001 to 10,000 colonies (thus 10,000 cfu/mL to 100,000 cfu/mL)), the “Grade code, P. vulgaris, 3 Days” value (Proteus vulgaris; listed as 0.5% CG) was 3 (101 to 1000 colonies (thus 1000 to 10,000 cfu/mL)) and the “Grade code, P. vulgaris, 13 Days” value (Proteus vulgaris) was 2 (52 to 100 colonies counted (thus 520 to 1000 cfu/mL)). The “Grade code, P. vulgaris, 30 Day” value (Proteus vulgaris) was 2 (52 to 100 colonies counted (thus 520 to 1000 cfu/mL)).

In the case of `O=C([O-])CN(CCN(CC(=O)O)CC(=O)O)CC(=O)[O-].[Na+].[Na+]` [EDTA, ethylenediaminetetraacetic acid disodium salt], the “Grade code, S. aureus, 3 Day” value (Staphylococcus aureus) is reported as 5 (More than 10,000 colonies estimated (thus >100,000 cfu/mL)), the “Grade code, S. aureus, 14 Day” value (Staphylococcus aureus) is reported as 4 (1001 to 10,000 colonies (thus 10,000 cfu/mL to 100,000 cfu/mL)) and the “Grade code, S. aureus, 30 Day” value (Staphylococcus aureus) is reported as 4 (1001 to 10,000 colonies (thus 10,000 cfu/mL to 100,000 cfu/mL)). The “Grade code, B. subtilis, 3 Day” value (Bacillus subtilis) was 4 (1001 to 10,000 colonies (thus 10,000 cfu/mL to 100,000 cfu/mL)), the “Grade code, B. subtilis, 14 Day” value (Bacillus subtilis) was 4 (1001 to 10,000 colonies (thus 10,000 cfu/mL to 100,000 cfu/mL)) and the “Grade code, B. subtilis, 30 Days” value (Bacillus subtilis) was 4 (1001 to 10,000 colonies (thus 10,000 cfu/mL to 100,000 cfu/mL)). The “Grade code, S. epidermidis, 3 Days” value [1] was 4 (1001 to 10,000 colonies (thus 10,000 cfu/mL to 100,000 cfu/mL)), the “Grade code, S. epidermidis, 13 Days” value [1] was 3 (101 to 1000 colonies (thus 1000 to 10,000 cfu/mL)) and the “Grade code, S. epidermidis, 30 Days” value [1] was 4 (1001 to 10,000 colonies (thus 10,000 cfu/mL to 100,000 cfu/mL)). The “Grade code, E. coli, 3 Day” value (Escherichia coli) was 5 (More than 10,000 colonies estimated (thus >100,000 cfu/mL)), the “Grade code, E. coli, 14 Day” value (Escherichia coli) was 5 (More than 10,000 colonies estimated (thus >100,000 cfu/mL)) and the “Grade code, E. coli, 30 Day” value (Escherichia coli) was 5 (More than 10,000 colonies estimated (thus >100,000 cfu/mL)). For the same compound, the “Grade code, Aeromonas sp, 3 Days” value (Aeromonas sp.) was 5 (More than 10,000 colonies estimated (thus >100,000 cfu/mL)), the “Grade code, Aeromonas sp, 14 Days” value (Aeromonas sp.) was 4 (1001 to 10,000 colonies (thus 10,000 cfu/mL to 100,000 cfu/mL)) and the “Grade code, Aeromonas sp, 30 Days” value (Aeromonas sp.) was 4 (1001 to 10,000 colonies (thus 10,000 cfu/mL to 100,000 cfu/mL)). For the same compound, the “Grade code, P. aeruginosa, 3 Days” value (Pseudomonas aeruginosa) was 4 (1001 to 10,000 colonies (thus 10,000 cfu/mL to 100,000 cfu/mL)), the “Grade code, P. aeruginosa, 13 Days” value (Pseudomonas aeruginosa) was 4 (1001 to 10,000 colonies (thus 10,000 cfu/mL to 100,000 cfu/mL)) and the “Grade code, P. aeruginosa, 30 Days” value (Pseudomonas aeruginosa) was 5 (More than 10,000 colonies estimated (thus >100,000 cfu/mL)). For the same compound, the “Grade code, S. mutans, 3 Day” value (Streptococcus mutans) was 4 (1001 to 10,000 colonies (thus 10,000 cfu/mL to 100,000 cfu/mL)), the “Grade code, S. mutans, 13 Day” value (Streptococcus mutans) was 4 (1001 to 10,000 colonies (thus 10,000 cfu/mL to 100,000 cfu/mL)) and the “Grade code, S. mutans, 30 Days” value (Streptococcus mutans) was 4 (1001 to 10,000 colonies (thus 10,000 cfu/mL to 100,000 cfu/mL)). The “Grade code, P. vulgaris, 3 Days” value (Proteus vulgaris) was 5 (More than 10,000 colonies estimated (thus >100,000 cfu/mL)), the “Grade code, P. vulgaris, 13 Days” value (Proteus vulgaris) was 4 (1001 to 10,000 colonies (thus 10,000 cfu/mL to 100,000 cfu/mL)) and the “Grade code, P. vulgaris, 30 Day” value (Proteus vulgaris) was 4 (1001 to 10,000 colonies (thus 10,000 cfu/mL to 100,000 cfu/mL)).
